Assay results as given in PMC6983093, “Ketoprofen-Based Ionic Liquids: Synthesis and Interactions with Bovine Serum Albumin” (Molecules, 2019).
Where “and” joins values, the source holds several entries; their conditions need not be identical. Equal entries are not always repeated.

Tests used:
[1] = target: cytochrome C oxidase; parameters: method as in doi:10.1016/j.molliq.2017.02.027; settings: cited from earlier work; for IC50: read-out: IC50 for the inhibition of cytochrome C oxidase
[2] = target: T1, bovine serum albumin (BSA) (Bos taurus, UniProt P02769); assay: ATR-FTIR analysis of the Amide I band of BSA-compound complexes (secondary structure); settings: for α-Helices, Relative Area of Amide I band component: BSA 0.3 mM : compound 1:1, phosphate buffer pH 7.4, 50 mM, native BSA 47.3; for Unordered Structures, Relative Area of Amide I band component: '-' = no band, native BSA 21
T1 construct: Bovine serum albumin (BSA), heat shock fraction, protease-free, fatty acid-free, essentially globulin free (pH 7, ≥98%); purchased Merck (Darmstadt, Germany)
Description: In the spectra of proteins, the Amide I band region (1700–1600 cm^−1) is mainly due to the starching vibrations of the carbonyl group (80%) and is highly sensitive to the changes in the geometry and the environment of the amide bonds. […] The band assignments were done according to Jackson and Mantsch and the analysis of the structure was taken into consideration the data on the BSA available in the literature.
The spectra of the proteins were referenced to the respective spectra of 50 mM sodium phosphate buffer, pH 7.4 containing the same amount of the corresponding IL.
Then the ATR-FTIR spectra were Fourier deconvoluted by Opus software version 5.5 using a bandwidth of 12 cm^−1, 2.9 resolution enhancement factor, and Lorentzian lineshape. Second derivative spectra were obtained using the Savitzky-Golay algorithm based on 17 smoothing points. Then, the relative contribution of each band component of the Amide I band was determined by curve fitting following the procedure of the OPUS program. In the fitting, the number of components and the initial values of their position were set as determined from the second derivative spectra. The initial bandwidth of all components was set to 12 cm^−1 and the components were approximated by mixed Lorentzian/Gaussian functions. The curve-fitting was performed according to the Local Least Squares algorithm. The assignment of the Amide I band positions to the secondary structure was done according to [36].

[3] = target: T1, bovine serum albumin (BSA); assay: Steady-state FRET between BSA fluorophores and compound; assay type: binding; settings: [BSA] = [Quencher] = 2 μM; T = 25 °C
Text: The following equations are used to estimate the steady-state FRET parameters:(3) E=1−F/Fo=Ro^6/Ro^6+ro^6, (4) Ro^6=8.8x10^−25K^2n^−4ϕJ, (5) J=∑F(λ)ε(λ)λ^4Δλ/∑F(λ)Δλ, where E is energy transfer efficacy, Ro is the characteristic distance called Förster distance or critical distance at which the energy transfer efficacy is 50%, ro is the distance between the quencher (drug) and the BSA fluorophores. […] F(λ) is the fluorescence intensity of the fluorescence of the donor, ε(λ) (L mol^−1 cm^−1) is the molar absorption coefficient of the acceptor at wavelength λ.
(§1) BSA-ILs incubated 1 hour prior to the measurements.

[4] = target: T1, bovine serum albumin (BSA); assay: BSA fluorescence quenching (Stern–Volmer and double-log analysis); assay type: binding; settings: 25 °C; for bimolecular quenching rate constant kq: pH 7.4, τo taken as 10^−8 s; for Binding constant KA / Stern–Volmer quenching constant Ksv: sodium phosphate buffer pH 7.4, 50 mM; for Stern–Volmer quenching constant Ksv: BSA 2 μM, λex 280 nm
Description: The fluorescence quenching data are analyzed according to the Stern–Volmer Equation (1):(1) Fo/F=1+kqτqo[Q]=1+Ksv[Q], where Fo and F is the fluorescence peak intensities in the absence and in the presence of quencher.
The maximum scatter quenching constant Kq that is due to collisions between biomolecules is 2 × 10^10 L mol^−1 s^−1 [33].
The dependence of log(Fo−F/F) vs. log[Q] is linear with a slope equal to the number of the binding sites, and y-intercept corresponds to the log of the effective binding constant (KA).
All fluorescence measurements were carried out on Perkin Elmer LS 55 fluorimeter equipped with a 1.0 cm quartz cuvette.
as §1

[5] = Thermogravimetric analysis (thermal stability, TG); settings: heating 10 °C min^−1, air atmosphere
[6] = BSA:compound 1:1, pH 7.4, one value per band, in the order of the band positions of the column to the left

T1 sequence (P02769 25-607): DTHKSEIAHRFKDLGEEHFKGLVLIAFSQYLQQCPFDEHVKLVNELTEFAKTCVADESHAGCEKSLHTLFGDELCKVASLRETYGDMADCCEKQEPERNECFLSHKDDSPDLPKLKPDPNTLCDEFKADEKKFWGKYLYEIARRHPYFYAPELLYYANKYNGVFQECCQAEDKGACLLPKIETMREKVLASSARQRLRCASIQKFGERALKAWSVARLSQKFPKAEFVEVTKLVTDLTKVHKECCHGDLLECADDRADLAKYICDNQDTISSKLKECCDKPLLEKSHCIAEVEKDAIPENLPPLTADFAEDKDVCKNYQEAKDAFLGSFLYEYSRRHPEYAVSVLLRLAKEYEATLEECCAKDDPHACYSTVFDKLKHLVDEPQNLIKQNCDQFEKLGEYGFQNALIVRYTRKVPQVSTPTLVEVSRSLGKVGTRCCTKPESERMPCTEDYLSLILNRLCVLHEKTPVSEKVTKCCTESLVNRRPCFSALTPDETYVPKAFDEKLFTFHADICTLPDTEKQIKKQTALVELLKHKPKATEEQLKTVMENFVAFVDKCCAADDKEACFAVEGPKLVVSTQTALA

Row | Molecule | IC50 [1] [mM] | Toxicity relative to the parent sodium salt [1] | α-Helices, Relative Area of Amide I band component [2] [%] | Effect on the secondary structure of BSA (in words) ([2]; BSA:compound 1:1, pH 7.4) | Unordered Structures, Relative Area of Amide I band component ([2]; BSA:compound 1:1, pH 7.4) [%] | β-Structures, Relative Area of Amide I band components [2, 6] | EFRET (energy transfer efficacy) [3] | Ro (Förster critical distance) [3] [nm] | ro (distance between quencher and BSA fluorophores) [3] [nm] | bimolecular quenching rate constant kq [4] | Binding constant KA [4] | Stern–Volmer quenching constant Ksv [4] | Tonset (onset of the thermal degradation) [5] [°C] | Aromatic Residues/Aggregated Strands/Antiparallel β-Sheets, Relative Area of Amide I band components [2, 6] [%]
1 | CC(C(=O)O)c1cccc(C(=O)c2ccccc2)c1 (stereo not shown) [cholinium ketoprofenate] | ~21.3 |  |  |  |  |  |  |  |  |  |  |  |  | 
2 | COc1ccc2cc(C(C)C(=O)[O-])ccc2c1.C[N+](C)(C)CCO (stereo not shown) [cholinium naproxenate] |  | more toxic than its parent sodium salt |  |  |  |  |  |  |  |  |  |  |  | 
3 | CC(C(=O)O)c1cccc(C(=O)c2ccccc2)c1 (stereo not shown) [sodium ketoprofenate] | ~0.0006 |  |  |  |  |  |  |  |  |  |  |  |  | 
4 | L-Leucine Ethyl Ester Ketoprofenate [[L-LeuOEt][KETO]] |  |  | 36.7 | very close to the native BSA conformation | 21.5 | 13.5% and 13.7% | 0.0246 | 3.30 | 6.14 | 8.3 10^12, L mol^−1 s^−1 | 7.1 10^5, L mol^−1 | 8.3 10^4, L mol^−1 |  | 
5 | L-Valine Butyl Ester Ketoprofenate [[L-ValOBu][KETO]] |  |  | 27.8 |  |  |  | 0.0520 | 3.32 | 5.48 | 7.3 10^12, L mol^−1 s^−1 | 7.5 10^5, L mol^−1 | 7.3 10^4, L mol^−1 | 101.1 | 
6 | L-Valine Ethyl Ester Ketoprofenate [[L-ValOEt][KETO]] |  |  | 28.8 |  | 17.25 |  | 0.1830 | 3.43 | 4.68 | 6.3 10^12, L mol^−1 s^−1 | 8.2 10^5, L mol^−1 | 6.3 10^4, L mol^−1 | 100.4 | 
7 | L-Valine Isopropyl Ester Ketoprofenate [[L-ValOiPr][KETO]] |  |  | 23.8 | most dramatic changes in the secondary structure | 11.7 |  | 0.0625 | 3.38 | 5.42 | 7.1 10^12, L mol^−1 s^−1 | 1.5 10^5, L mol^−1 | 7.1 10^4, L mol^−1 |  | 
8 | L-Valine Propyl Ester Ketoprofenate [[L-ValOPr][KETO]] |  |  | 26.9 |  | 29.2 |  | 0.1770 | 3.46 | 4.74 | 7.1 10^12, L mol^−1 s^−1 | 2.3 10^5, L mol^−1 | 7.1 10^4, L mol^−1 | 52.3 | 11.0
